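Assay format: 96-well plates, 48-hour exposure. At the GI50, growth is halved.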 Activity calls are given as the source filed them. No stated cut-off is given here; in the data, active = GI50 up to about 1.1 µM and inactive = higher.
Assays:
Assay in all cases: NCI-60 cell line screen, 48 h
[1] = tested on: SK-OV-3
[2] = tested on: SN12C
[3] = tested on: OVCAR-8
[4] = tested on: NCI-H226
[5] = tested on: Hs-578T
[6] = tested on: OVCAR-5
[7] = tested on: MOLT-4
[8] = tested on: NCI-H460
[9] = tested on: HOP-92
[10] = tested on: SF-539
[11] = tested on: OVCAR-4
[12] = tested on: KM12
[13] = tested on: TK-10
[14] = tested on: SK-MEL-28
[15] = tested on: UO-31
[16] = tested on: SNB-19
[17] = tested on: HOP-62
[18] = tested on: PC-3
[19] = tested on: K562
[20] = tested on: MDA-MB-435
[21] = tested on: 786-0
[22] = tested on: A549
[23] = tested on: MDA-MB-231
[24] = tested on: NCI/ADR-RES
[25] = tested on: HCT-116
[26] = tested on: UACC-257
[27] = tested on: HT-29
[28] = tested on: IGROV-1
[29] = tested on: A498
[30] = tested on: SF-295
[31] = tested on: HCC 2998
[32] = tested on: RPMI-8226
[33] = tested on: CAKI-1
[34] = tested on: RXF 393
[35] = tested on: MDA-N
[36] = tested on: NCI-H23
[37] = tested on: HCT-15
[38] = tested on: NCI-H522
[39] = tested on: BT-549
[40] = tested on: U-251
[41] = tested on: MCF7
[42] = tested on: ACHN
[43] = tested on: M14
[44] = tested on: SNB-75
[45] = tested on: LOX IMVI
[46] = tested on: EKVX
[47] = tested on: T47D
[48] = tested on: OVCAR-3
[49] = tested on: UACC-62
[50] = tested on: SK-MEL-5
[51] = tested on: SF-268
[52] = tested on: COLO 205
[53] = tested on: HL-60
[54] = tested on: SW-620
[55] = tested on: DU-145
[56] = tested on: SK-MEL-2
[57] = tested on: CCRF-CEM

In the case of `O=C(OCC12CC3CC(CC(C3)C1)C2)c1ccc(NCc2cc(O)ccc2O)cc1`, the GI50 [1] is reported as 6.08 µM (inactive), the GI50 [2] is reported as 2.57 µM (inactive) and the GI50 [3] is reported as 1.81 µM (inactive). For the same compound, the GI50 [4] was 1.77 µM (inactive), the GI50 [5] was 2.14 µM (inactive) and the GI50 [6] was 2.1 µM (inactive). For the same compound, the GI50 [7] was 0.115 µM (active), the GI50 [8] was 2.57 µM (inactive) and the GI50 [9] was 3.66 µM (inactive). The GI50 [10] was 0.544 µM (active), the GI50 [11] was 1.05 µM (active) and the GI50 [12] was 1.24 µM (inactive). The GI50 [13] was 1.99 µM (inactive), the GI50 [14] was 1.54 µM (inactive) and the GI50 [15] was 0.671 µM (active). For the same compound, the GI50 [16] was 4.33 µM (inactive), the GI50 [17] was 4.62 µM (inactive) and the GI50 [18] was 0.713 µM (active). The GI50 [19] was 0.431 µM (active), the GI50 [20] was 1.99 µM (inactive) and the GI50 [21] was 0.708 µM (active). The GI50 [22] was 2.67 µM (inactive), the GI50 [23] was 4.06 µM (inactive) and the GI50 [24] was 1.47 µM (inactive). For the same compound, the GI50 [25] was 2.26 µM (inactive), the GI50 [26] was 1.64 µM (inactive) and the GI50 [27] was 1.47 µM (inactive). The GI50 [28] was 0.131 µM (active), the GI50 [29] was 3.72 µM (inactive) and the GI50 [30] was 3.76 µM (inactive). The GI50 [31] was 1.79 µM (inactive), the GI50 [32] was 0.199 µM (active) and the GI50 [33] was 0.466 µM (active). For the same compound, the GI50 [34] was 1.29 µM (inactive), the GI50 [35] was 2.81 µM (inactive) and the GI50 [36] was 1.47 µM (inactive). For the same compound, the GI50 [37] was 1.32 µM, the GI50 [38] was 0.0662 µM (active) and the GI50 [39] was 0.331 µM (active). For the same compound, the GI50 [40] was 1.02 µM (active), the GI50 [41] was 1.08 µM (active) and the GI50 [42] was 2.01 µM (inactive). The GI50 [43] was 1.96 µM (inactive), the GI50 [44] was 1.81 µM (inactive) and the GI50 [45] was 1.72 µM (inactive). The GI50 [46] was 2.7 µM (inactive), the GI50 [47] was 0.473 µM (active) and the GI50 [48] was 0.305 µM (active). The GI50 [49] was 1.6 µM (inactive), the GI50 [50] was 1.32 µM (inactive) and the GI50 [51] was 3.27 µM (inactive). For the same compound, the GI50 [52] was 0.681 µM (active), the GI50 [53] was 0.145 µM (active) and the GI50 [54] was 3.02 µM (inactive). For the same compound, the GI50 [55] was 3.54 µM (inactive), the GI50 [56] was 2.5 µM (inactive) and the GI50 [57] was 0.0547 µM (active).
